Patent US20060069132A1, “Azolecarboxamide herbicides” (priority 2004, published 2006)
Where two headings read alike, the source gives them in different places.

How the values were obtained:
morningglory = experiment: Test C pre-/postemergence herbicide test; format: in vivo, Ipomoea coccinea; set-up: key to Plant response rating, Morningglory: 0 = no effect, 100 = complete control
Summary of the method: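 Seeds were planted and sprayed preemergence with test chemicals in a non-phytotoxic solvent mixture containing surfactant; postemergence treatments went onto plants 2 to 18 cm tall (1- to 4-leaf stage). After 12 to 14 days in a greenhouse, injury was rated visually against untreated controls on a 0–100 scale.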

chickweed = experiment: Test C postemergence herbicide test; format: in vivo, Stellaria media; conditions: for Chickweed plant response rating: 500 g ai/ha
Method: At the same time, plants selected from these crop and weed species and also winter barley (Hordeum vulgare L.), blackgrass (Alopecurus myosuroides Huds.), canarygrass (Phalaris minor Retz.), chickweed (Stellaria media (L.) Vill.), downy bromegrass (Bromus tectorum L.), green foxtail (Setaria viridis (L.) Beauv.), Italian ryegrass (Lolium multiflorum Lam.), wheat (Triticum aestivum L.), wild oat (Avenafatua L.) and windgrass (Apera spica-venti (L.) Beauv.) were treated with postemergence applications of some of the test chemicals formulated in the same manner. Plants ranged in height from 2 to 18 cm (1- to 4-leaf stage) for postemergence treatments. Plant species in the flooded paddy test consisted of rice (Oryza sativa), smallflower umbrella sedge (Cyperus difformis L.), ducksalad (Heteranthera limosa (Sw.) Willd.) and barnyardgrass (Echinochloa crus-galli (L.) Beauv.) grown to the 2-leaf stage for testing. Treated plants and controls were maintained in a greenhouse for 12 to 14 days, after which time all species were compared to controls and visually evaluated. Plant response ratings, summarized in Table C, are based on a scale of 0 to 100 where 0 is no effect and 100 is complete control. A dash (-) response means no test result.

rice = experiment: Test B pre-/postemergence herbicide test; format: in vivo, Oryza sativa
Summary of the method: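 Herbicidal effect was judged by eye on a 0–100 scale after plants stood 13 to 15 days in the greenhouse following pre- or postemergence treatment with surfactant-containing formulations.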

[1] = Postemergence, 500 g ai/ha, scale 0 to 100
[2] = Postemergence, 250 g ai/ha, scale 0 to 100, 0 no effect, 100 complete control
[3] = Preemergence, 500 g ai/ha, scale 0 to 100, 0 no effect, 100 complete control
[4] = postemergence, 125 g ai/ha, scale 0 to 100
[5] = postemergence, 62 g ai/ha, scale 0 to 100
[6] = Postemergence, 125 g ai/ha, scale 0 to 100, 0 no effect, 100 complete control
[7] = 250 g ai/ha, scale 0 to 100 (0 no effect, 100 complete control), visual, 12 to 14 days, preemergence
[8] = postemergence, 31 g ai/ha, scale 0 to 100
[9] = 125 g ai/ha, scale 0 (no effect) to 100 (complete control), visual, 12 to 14 days, preemergence
[10] = Ipomoea, post-emergence, Postemergence, 250 g ai/ha, scale 0 to 100, 0 no effect, 100 complete control, read-out: Plant response rating, Morningglory
[11] = Ipomoea, post-emergence, postemergence, 125 g ai/ha, scale 0 to 100, read-out: Plant response rating, Morningglory
[12] = Ipomoea, post-emergence, postemergence, 62 g ai/ha, scale 0 to 100, read-out: Plant response rating, Morningglory
[13] = 500 g ai/ha, visual rating 0-100, 0 no effect, 100 complete control, preemergence
[14] = 125 g ai/ha, 0 = no effect, 100 = complete control, preemergence
[15] = 62 g ai/ha, preemergence, scale 0 to 100
[16] = 250 g ai/ha, scale 0-100, preemergence
[17] = 500 g ai/ha, scale 0 to 100 (0 no effect, 100 complete control), visual, 12 to 14 days, preemergence
[18] = 500 g ai/ha, visual rating, 0 = no effect, 100 = complete control, preemergence

| Structure (SMILES) | Morningglory plant response rating (morningglory; [1]) | Plant response rating, Morningglory (morningglory; [2]) | Plant response rating, Morningglory (morningglory; [4]) | Plant response rating, Morningglory (morningglory; [5]) | Plant response rating, Chickweed (chickweed; [2]) | Plant response rating, Chickweed (chickweed; [5]) | Plant response rating (0 = no effect, 100 = complete control), Morningglory (morningglory; 62 g ai/ha, preemergence) | Plant response rating, Morningglory (morningglory; [9]) | Plant response rating, Chickweed (chickweed; [4]) | Rice plant response rating (0 to 100 scale) (rice; [14]) | Plant response rating, Morningglory (morningglory; [15]) | Plant response rating, Morningglory (morningglory; [16]) | Plant response rating, Morningglory (morningglory; [17]) | Plant response rating, Rice (rice; [18]) | further results |
| --- | --- | --- | --- | --- | --- | --- | --- | --- | --- | --- | --- | --- | --- | --- | --- |
| CCNC(=O)c1cccc(NC(=O)c2cc(C(C)(C)C)nn2CC(F)(F)F)c1 [Compound 31] | 70 | 60 | 50 | 50 | 100 | 90 | – | – | – | – | – | – | – | – | Morningglory plant response rating (morningglory; [3]): 40; Plant response rating, Chickweed (chickweed; [6]): 90 |
| C=Cn1nc(C(C)(C)C)cc1C(=O)Nc1cccc(C(=O)N(CC)CC)c1 [Compound 34] | 40 | 10 | 10 | 10 | 60 | – | 0 | – | – | – | – | – | – | – | Plant response rating, Morningglory (morningglory; [7]): 0; Morningglory plant response rating (morningglory; [3]): 100; Chickweed plant response rating (chickweed; Postemergence, scale 0 to 100): 100; Plant response rating, Chickweed (chickweed; [6]): 50 |
| CCNC(=O)c1cccc(NC(=O)c2cc(C(C)(C)C)nn2CCF)c1 [Compound 35] | – | – | 40 | 20 | – | 80 | 100 | – | – | – | – | – | – | – | Plant response rating, Morningglory (morningglory; 31 g ai/ha, preemergence, scale 0 to 100): 0; Plant response rating, Chickweed (chickweed; [6]): 90; Plant response rating, Chickweed (chickweed; postemergence, 16 g ai/ha, scale 0 to 100): 70; Plant response rating, Chickweed (chickweed; [8]): 70 |
| CCn1nc(C(C)(C)C)cc1C(=O)Nc1cccc(C(=O)NC2CC2)c1 [Compound 44] | – | 80 | – | 50 | 90 | 90 | 0 | 0 | – | – | – | – | – | – | Plant response rating, Morningglory (morningglory; [7]): 0; Plant response rating, Chickweed (chickweed; [6]): 90 |
| CCOC(=O)c1cccc(NC(=O)c2cc(C(C)(C)C)nn2CC)c1 [Compound 80, ethyl 3-[[[3-(1,1-dimethylethyl)-1-ethyl-1H-pyrazol-5-yl]carbonyl]-amino]benzoate] | – | – | – | – | 100 | 100 | 20 | – | 100 | – | – | – | – | – | pest or weed control at 250 g/ha (morningglory; [10]): 90%; pest or weed control at 125 g/ha (morningglory; [11]): 90%; pest or weed control at 62 g/ha (morningglory; [12]): 90%; pest or weed control at 31 g/ha (morningglory; Ipomoea, pre-emergence, 31 g ai/ha, preemergence, scale 0 to 100, read-out: Plant response rating, Morningglory): 0%; Plant response rating, Chickweed (chickweed; [8]): 90 |
| CCn1nc(C(C)(C)C)cc1C(=O)Nc1cccc(C(=O)OCCF)c1 [Compound 82, 2-fluoroethyl 3-[[[3-(1,1-dimethylethyl)-1-ethyl-1H-pyrazol-5-yl]-carbonyl]amino]benzoate] | 50 | – | – | – | 100 | 70 | – | – | 95 | – | – | – | – | – | plant injury at 125 g/ha (rice; Oryza sativa, pre-emergence, 336 h, preemergence, 125 g ai/ha, 0 to 100 scale, 0 is no effect, 100 is complete control, read-out: Plant response rating, Rice): 0%; pest or weed control at 250 g/ha (morningglory; [10]): 50%; pest or weed control at 125 g/ha (morningglory; [11]): 10%; pest or weed control at 62 g/ha (morningglory; [12]): 10%; Chickweed plant response rating (chickweed; Postemergence, scale 0 to 100): 100 |
| C#CCNC(=O)c1cccc(NC(=O)c2cc(C(C)(C)C)nn2CC)n1 [Compound 147] | 0 | 0 | 0 | 0 | 90 | 5 | 0 | 0 | 30 | – | – | – | – | – | Plant response rating, Rice (rice; [13]): 10; Plant response rating, Rice (rice; preemergence, 125 g ai/ha, 0 to 100 scale, 0 is no effect, 100 is complete control): 0; Morningglory plant response rating (morningglory; [3]): 0; Chickweed plant response rating (chickweed; Postemergence, scale 0 to 100): 100 |
| CCc1nc(C(C)(C)C)sc1C(=O)Nc1cccc(C(=O)NCC2CC2)c1 [Compound 212] | 70 | 70 | 10 | 10 | 80 | 60 | – | 0 | 80 | 10 | 0 | 5 | 30 | – | Plant response rating, Rice (rice; [13]): 20; Chickweed plant response rating (chickweed; Postemergence, scale 0 to 100): 100 |
| CCNC(=O)c1cccc(NC(=O)c2nn(C(C)(C)C)cc2Br)c1 [Compound 221, 4-bromo-1-(1,1-dimethylethyl)-N-[3-[(ethylamino)carbonyl]phenyl]-1H-pyrazole-3-carboxamide] | – | – | – | – | – | – | – | – | – | – | – | – | – | – | plant injury at 125 g/ha (rice; Oryza sativa, pre-emergence, 336 h, 125 g ai/ha, 0 = no effect, 100 = complete control, read-out: Rice plant response rating (0 to 100 scale)): 0%; plant injury at 500 g/ha (rice; Oryza sativa, pre-emergence, 336 h, 500 g ai/ha, visual rating, 0 = no effect, 100 = complete control, read-out: Plant response rating, Rice): 20%; pest or weed control at 62 g/ha (morningglory; Ipomoea, pre-emergence, 62 g ai/ha, preemergence, scale 0 to 100, read-out: Plant response rating, Morningglory): 0%; pest or weed control at 125 g/ha (morningglory; Ipomoea, pre-emergence, 125 g ai/ha, scale 0 (no effect) to 100 (complete control), visual, 12 to 14 days, read-out: Plant response rating, Morningglory): 0%; pest or weed control at 250 g/ha (morningglory; Ipomoea, pre-emergence, 250 g ai/ha, scale 0-100, read-out: Plant response rating, Morningglory): 0%; pest or weed control at 500 g/ha (morningglory; Ipomoea, pre-emergence, 500 g ai/ha, scale 0 to 100 (0 no effect, 100 complete control), visual, 12 to 14 days, read-out: Plant response rating, Morningglory): 0% |
| CCn1nc(C(C)(C)C)cc1C(=O)Nc1cc(C(=O)N(C)OC)ccc1F [Compound 244] | – | – | – | – | – | – | – | 15 | – | 60 | 0 | 20 | 55 | 80 | – |
| CCOC(=O)c1cccc(NC(=O)c2cc(C3(C)CC3)nn2CC)c1 [Compound 295] | – | 30 | 10 | 10 | 100 | 100 | – | – | 100 | 10 | – | – | – | 20 | Plant response rating, Chickweed (chickweed; [8]): 85 |
| CCn1nc(C(C)(C)C)cc1C(=O)Nc1ccc(OC)c(OC)c1 [Compound 298] | – | – | – | – | – | – | – | 5 | – | 40 | – | 20 | 45 | 60 | – |
| CCNC(=O)c1ccc(F)c(NC(=O)c2cc(C3(C)CC3)nn2CC)c1 [Compound 300] | – | – | – | – | – | – | – | 40 | – | 40 | 5 | 40 | – | 70 | – |
| CCn1nc(C2(C)CC2)cc1C(=O)Nc1cc(C(=O)N2CC=CC2)ccc1F [Compound 301] | – | – | – | – | – | – | – | 5 | – | 10 | 5 | 10 | 60 | 70 | – |
| CCN(CC)C(=O)c1cccc(NC(=O)c2cc(C(C)(C)C)nn2C)n1 [Compound 314] | – | – | – | – | – | – | – | 10 | – | – | 0 | 30 | 40 | 10 | Plant response rating (0 to 100 scale), Rice (rice; 125 g ai/ha, 0 is no effect, 100 is complete control, preemergence): 0 |
